Laboratory results published in patent US20260365670A1, “EGFR INHIBITORS AND USES THEREOF” (DIZAL (JIANGSU) PHARMACEUTICAL CO., LTD., priority 2022, published 2026).
pIC50: −log10 of the molar value. Read-outs that look alike come from different tables or passages of the source.

Assays:
EGFR L858R/T790M = biological target: T1, EGFR L858R/T790M (Homo sapiens, UniProt P00533, L858R/T790M); test: Inhibition of EGFR L858R/T790M biochemical enzymatic activity (HTRF); conditions: EGFR L858R-T790M, 1 mM ATP, 1 h, room temperature, read-out: IC50 (nM) @L858R-T790M
T1 construct: purchased Carna Bio
Procedure, shortened: (§1)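 For IC50 determination by four-parameter logistic fit, EDTA-quenched 1 h room-temperature reactions (1 mM ATP, 1 μM TK Substrate-biotin) were read by HTRF. The 665/615 nm emission ratio after 320 nm excitation served as the activity signal.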

[1] = biological target: T2, EGFR[T790M/C797S/d746-750] (Homo sapiens, UniProt P00533, C797S/DEL746-750/T790M); test: Inhibition of EGFR[T790M/C797S/d746-750] biochemical enzymatic activity (HTRF); conditions: EGFR T790M-C797S-Del19, 1 mM ATP, 1 h, room temperature, read-out: IC50 (nM) @T790M - C797S - Del19
T2 construct: purchased Carna Bio
Procedure, shortened: as §1

EGFR L858R = biological target: T3, EGFR L858R (Homo sapiens, UniProt P00533, L858R); test: Inhibition of EGFR L858R biochemical enzymatic activity (HTRF); conditions: 1 mM ATP, 1 h, room temperature, read-out: IC50 (nM) @L858R
T3 construct: purchased Carna Bio
Procedure, shortened: as §1

EGFR Exon19Del/T790M = biological target: T4, EGFR Exon19Del/T790M (Homo sapiens, UniProt P00533, DEL746-750/T790M); test: Inhibition of EGFR Exon19Del/T790M biochemical enzymatic activity (HTRF); conditions: EGFR Del19-T790M, 1 mM ATP, 1 h, room temperature, read-out: IC50 (nM) @Del19-T790M
T4 construct: purchased Carna Bio
Procedure, shortened: as §1

A-431 = test: Cell proliferation GI50, A-431 cells (Table 6); type: cell-based
PC-9 = test: Cell proliferation assay, PC-9 cells (CellTiter-Glo, 72 hours); type: cell-based; conditions: PC9 cells, CellTiter-Glo, read-out: PC9 GI50
Procedure, shortened: (§2)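 Cells are exposed to graded compound concentrations after overnight plating, using 500 PC-9 or 5000 Ba/F3 per well. Baseline-subtracted viability is compared with vehicle to give percent proliferation, then GI50.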

EGFR Exon19Del = biological target: T5, EGFR Exon19Del (Homo sapiens, UniProt P00533, DEL746-750); test: Inhibition of EGFR Exon19Del biochemical enzymatic activity (HTRF); conditions: EGFR Del19, 1 mM ATP, 1 h, room temperature, read-out: IC50 @Del19
T5 construct: purchased Carna Bio
Procedure, shortened: as §1

EGFR[T790M/C797S/L858R] = biological target: T6, EGFR[T790M/C797S/L858R] (Homo sapiens, UniProt P00533, C797S/L858R/T790M); test: Inhibition of EGFR[T790M/C797S/L858R] biochemical enzymatic activity (HTRF); conditions: EGFR T790M-C797S-L858R, 1 mM ATP, 1 h, room temperature, read-out: IC50 (nM) @T790M- C797S - L858R
T6 construct: purchased Carna Bio
Procedure, shortened: as §1

[2] = system: Ba/F3 cells expressing EGFR mutations; test: Cell proliferation assay, Ba/F3 cells expressing EGFR mutations (CellTiter-Glo, 72 hours); type: cell-based; conditions: CellTiter-Glo
Procedure, shortened: as §2

EGFR wild type = biological target: T7, EGFR wild type (Homo sapiens, UniProt P00533); test: Inhibition of EGFR wild type biochemical enzymatic activity (HTRF); conditions: EGFR WT, 1 mM ATP, 1 h, room temperature, read-out: IC50 (nM) @WT
T7 construct: purchased Carna Bio
Procedure, shortened: as §1

EGFR (d746-750 C797S) = biological target: T8, EGFR (d746-750 C797S) (Homo sapiens, UniProt P00533, C797S/DEL746-750); test: Inhibition of EGFR (d746-750 C797S) biochemical enzymatic activity (HTRF); conditions: EGFR Del19-C797S, 1 mM ATP, 1 h, room temperature, read-out: IC50 (nM) @Del19-C797S
T8 construct: purchased signalchem
Procedure, shortened: as §1

EGFR (C797S L858R) = biological target: T9, EGFR (C797S L858R) (Homo sapiens, UniProt P00533, C797S/L858R); test: Inhibition of EGFR (C797S L858R) biochemical enzymatic activity (HTRF); conditions: EGFR L858-C797S, 1 mM ATP, 1 h, room temperature, read-out: IC50 (nM) @L858-C797S
T9 construct: purchased signalchem
Procedure, shortened: as §1

[3] = BaF3 cells, EGFR DEL19-C797S, read-out: DEL19-C797S/BaF3 GI50
[4] = BaF3 cells, EGFR DEL19-T790-C797S, read-out: DEL19-T790-C797S/BaF3 GI50
[5] = BaF3 cells, EGFR L858R, read-out: L858R/BaF3 GI50
[6] = BaF3 cells, EGFR L858R-C797S, read-out: L858R-C797S/BaF3 GI50
[7] = BaF3 cells, EGFR L858R-T790-C797S, read-out: L858R-T790-C797S/BaF3 GI50
[8] = BaF3 cells, EGFR L858R-T790M, read-out: L858R-T790M/BaF3 GI50
[9] = EGFR DEL19-T790M, read-out: DEL19-T790M GI50
[10] = Homo sapiens, A-431, A-431 cells
[11] = Mus musculus, BaF3, 72 h, BaF3 cells, EGFR DEL19-C797S, read-out: DEL19-C797S/BaF3 GI50
[12] = Mus musculus, BaF3, 72 h, BaF3 cells, EGFR DEL19-T790-C797S, read-out: DEL19-T790-C797S/BaF3 GI50
[13] = Mus musculus, BaF3, 72 h, BaF3 cells, EGFR L858R, read-out: L858R/BaF3 GI50
[14] = Mus musculus, BaF3, 72 h, BaF3 cells, EGFR L858R-C797S, read-out: L858R-C797S/BaF3 GI50
[15] = Mus musculus, BaF3, 72 h, BaF3 cells, EGFR L858R-T790-C797S, read-out: L858R-T790-C797S/BaF3 GI50
[16] = Mus musculus, BaF3, 72 h, BaF3 cells, EGFR L858R-T790M, read-out: L858R-T790M/BaF3 GI50
[17] = Mus musculus, BaF3, 72 h, EGFR DEL19-T790M, read-out: DEL19-T790M GI50

T2 sequence (P00533 with tags, fused parts or gaps DEL746-750/T790M/C797S limits assumed): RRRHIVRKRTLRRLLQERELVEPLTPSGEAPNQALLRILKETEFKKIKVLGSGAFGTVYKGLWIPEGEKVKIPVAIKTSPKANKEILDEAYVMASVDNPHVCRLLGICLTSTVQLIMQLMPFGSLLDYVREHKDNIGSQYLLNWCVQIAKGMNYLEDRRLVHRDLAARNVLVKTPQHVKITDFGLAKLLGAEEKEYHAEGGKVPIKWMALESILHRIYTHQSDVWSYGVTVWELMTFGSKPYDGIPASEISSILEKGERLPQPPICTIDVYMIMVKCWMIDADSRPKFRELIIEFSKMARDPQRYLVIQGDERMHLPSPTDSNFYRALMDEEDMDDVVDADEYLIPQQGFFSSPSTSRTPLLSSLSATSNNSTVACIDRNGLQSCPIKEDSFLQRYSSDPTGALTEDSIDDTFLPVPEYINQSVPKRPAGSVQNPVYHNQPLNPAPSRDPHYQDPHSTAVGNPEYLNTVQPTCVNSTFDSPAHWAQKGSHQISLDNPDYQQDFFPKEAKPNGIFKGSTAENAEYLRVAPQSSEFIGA
T7 sequence (P00533 25-1210): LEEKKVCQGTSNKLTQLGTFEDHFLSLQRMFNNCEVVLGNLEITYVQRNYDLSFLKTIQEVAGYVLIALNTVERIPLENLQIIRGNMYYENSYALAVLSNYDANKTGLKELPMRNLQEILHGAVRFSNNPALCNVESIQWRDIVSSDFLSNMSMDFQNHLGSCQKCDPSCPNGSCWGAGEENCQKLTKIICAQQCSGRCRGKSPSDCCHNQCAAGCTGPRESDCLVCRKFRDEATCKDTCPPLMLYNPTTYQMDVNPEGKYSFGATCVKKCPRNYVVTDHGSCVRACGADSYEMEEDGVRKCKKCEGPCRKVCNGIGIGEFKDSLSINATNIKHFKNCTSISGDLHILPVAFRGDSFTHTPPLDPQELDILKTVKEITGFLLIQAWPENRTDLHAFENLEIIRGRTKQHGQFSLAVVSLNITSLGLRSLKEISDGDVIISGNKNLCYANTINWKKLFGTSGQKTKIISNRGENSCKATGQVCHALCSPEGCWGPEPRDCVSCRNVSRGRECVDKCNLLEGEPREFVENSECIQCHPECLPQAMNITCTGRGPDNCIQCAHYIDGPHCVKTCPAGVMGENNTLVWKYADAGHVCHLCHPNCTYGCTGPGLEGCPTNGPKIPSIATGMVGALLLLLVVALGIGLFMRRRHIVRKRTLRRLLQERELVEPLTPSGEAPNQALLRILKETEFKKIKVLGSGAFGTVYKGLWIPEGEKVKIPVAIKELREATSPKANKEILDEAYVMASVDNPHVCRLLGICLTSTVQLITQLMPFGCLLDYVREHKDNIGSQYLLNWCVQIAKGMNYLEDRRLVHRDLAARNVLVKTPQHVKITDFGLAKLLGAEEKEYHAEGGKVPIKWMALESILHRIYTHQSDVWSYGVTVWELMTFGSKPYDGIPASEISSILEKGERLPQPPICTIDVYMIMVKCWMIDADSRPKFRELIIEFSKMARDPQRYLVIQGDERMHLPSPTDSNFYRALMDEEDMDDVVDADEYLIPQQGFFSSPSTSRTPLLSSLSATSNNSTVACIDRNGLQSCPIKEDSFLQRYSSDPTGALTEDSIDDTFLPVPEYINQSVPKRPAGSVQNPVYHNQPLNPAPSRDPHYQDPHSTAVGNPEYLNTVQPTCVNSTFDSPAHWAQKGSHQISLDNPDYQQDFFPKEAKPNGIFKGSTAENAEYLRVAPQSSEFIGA
T1 sequence (P00533 25-1210 T790M/L858R): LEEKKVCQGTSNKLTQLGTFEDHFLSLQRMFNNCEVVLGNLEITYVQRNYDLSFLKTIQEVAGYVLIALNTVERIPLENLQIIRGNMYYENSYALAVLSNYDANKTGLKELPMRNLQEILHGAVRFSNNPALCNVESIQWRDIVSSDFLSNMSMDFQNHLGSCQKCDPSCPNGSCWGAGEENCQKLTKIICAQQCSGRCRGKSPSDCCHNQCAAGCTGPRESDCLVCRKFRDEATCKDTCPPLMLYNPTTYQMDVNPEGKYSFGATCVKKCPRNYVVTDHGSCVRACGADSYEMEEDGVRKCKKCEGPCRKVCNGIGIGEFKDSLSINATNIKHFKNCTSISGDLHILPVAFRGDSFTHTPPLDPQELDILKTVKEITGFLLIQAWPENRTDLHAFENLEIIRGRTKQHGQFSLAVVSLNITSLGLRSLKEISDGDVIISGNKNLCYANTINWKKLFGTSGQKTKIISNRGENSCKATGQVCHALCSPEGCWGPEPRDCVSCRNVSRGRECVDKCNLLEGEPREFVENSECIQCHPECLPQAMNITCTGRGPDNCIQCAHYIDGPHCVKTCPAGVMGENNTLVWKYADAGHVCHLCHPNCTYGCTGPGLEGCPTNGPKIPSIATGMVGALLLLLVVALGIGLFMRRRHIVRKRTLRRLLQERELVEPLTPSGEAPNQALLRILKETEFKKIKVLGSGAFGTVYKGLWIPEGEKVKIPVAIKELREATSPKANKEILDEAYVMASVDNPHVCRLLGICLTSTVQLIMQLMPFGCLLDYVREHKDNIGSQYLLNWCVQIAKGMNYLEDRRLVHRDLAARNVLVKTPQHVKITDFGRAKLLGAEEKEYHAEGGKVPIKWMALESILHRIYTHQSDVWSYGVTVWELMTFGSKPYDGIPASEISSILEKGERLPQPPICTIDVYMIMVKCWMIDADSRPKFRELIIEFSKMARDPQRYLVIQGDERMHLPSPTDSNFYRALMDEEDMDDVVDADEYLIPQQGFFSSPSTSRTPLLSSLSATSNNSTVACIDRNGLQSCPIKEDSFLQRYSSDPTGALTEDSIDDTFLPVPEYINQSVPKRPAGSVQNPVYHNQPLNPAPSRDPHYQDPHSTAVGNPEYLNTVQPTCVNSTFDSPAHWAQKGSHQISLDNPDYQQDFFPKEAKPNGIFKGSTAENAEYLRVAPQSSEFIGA
T6 sequence (P00533 25-1210 T790M/C797S/L858R): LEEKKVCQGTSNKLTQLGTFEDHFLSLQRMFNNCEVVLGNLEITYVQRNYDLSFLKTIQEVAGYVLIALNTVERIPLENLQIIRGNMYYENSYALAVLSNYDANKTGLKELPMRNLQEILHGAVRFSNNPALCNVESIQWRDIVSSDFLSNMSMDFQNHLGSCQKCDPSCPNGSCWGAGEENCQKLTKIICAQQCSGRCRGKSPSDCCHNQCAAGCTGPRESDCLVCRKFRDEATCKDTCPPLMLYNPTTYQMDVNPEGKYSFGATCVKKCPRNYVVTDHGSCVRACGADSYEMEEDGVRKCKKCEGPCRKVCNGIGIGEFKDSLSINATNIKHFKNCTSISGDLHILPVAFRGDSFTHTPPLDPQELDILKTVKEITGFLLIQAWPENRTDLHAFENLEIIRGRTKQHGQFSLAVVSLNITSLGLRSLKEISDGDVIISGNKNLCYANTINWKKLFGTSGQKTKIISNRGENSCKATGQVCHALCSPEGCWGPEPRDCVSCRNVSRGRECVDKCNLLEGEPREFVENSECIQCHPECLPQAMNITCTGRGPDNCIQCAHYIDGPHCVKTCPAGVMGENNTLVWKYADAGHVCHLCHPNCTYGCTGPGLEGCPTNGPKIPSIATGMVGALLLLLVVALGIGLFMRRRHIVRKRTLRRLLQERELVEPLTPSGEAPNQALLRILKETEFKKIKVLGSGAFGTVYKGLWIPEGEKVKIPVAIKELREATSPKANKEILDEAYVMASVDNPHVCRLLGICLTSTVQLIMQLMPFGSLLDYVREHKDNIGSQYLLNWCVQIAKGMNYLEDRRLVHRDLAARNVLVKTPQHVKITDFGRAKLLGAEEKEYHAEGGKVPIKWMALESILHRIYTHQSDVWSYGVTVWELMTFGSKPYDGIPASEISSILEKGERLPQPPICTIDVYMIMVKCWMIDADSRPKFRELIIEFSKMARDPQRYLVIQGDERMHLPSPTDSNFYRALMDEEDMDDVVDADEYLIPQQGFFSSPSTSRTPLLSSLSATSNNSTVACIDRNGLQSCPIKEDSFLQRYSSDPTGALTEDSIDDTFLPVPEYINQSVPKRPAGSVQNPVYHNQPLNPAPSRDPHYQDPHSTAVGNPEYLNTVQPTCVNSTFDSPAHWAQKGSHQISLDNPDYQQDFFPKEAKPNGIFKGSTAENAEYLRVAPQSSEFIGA
T8 sequence (P00533 with tags, fused parts or gaps DEL746-750/C797S limits assumed): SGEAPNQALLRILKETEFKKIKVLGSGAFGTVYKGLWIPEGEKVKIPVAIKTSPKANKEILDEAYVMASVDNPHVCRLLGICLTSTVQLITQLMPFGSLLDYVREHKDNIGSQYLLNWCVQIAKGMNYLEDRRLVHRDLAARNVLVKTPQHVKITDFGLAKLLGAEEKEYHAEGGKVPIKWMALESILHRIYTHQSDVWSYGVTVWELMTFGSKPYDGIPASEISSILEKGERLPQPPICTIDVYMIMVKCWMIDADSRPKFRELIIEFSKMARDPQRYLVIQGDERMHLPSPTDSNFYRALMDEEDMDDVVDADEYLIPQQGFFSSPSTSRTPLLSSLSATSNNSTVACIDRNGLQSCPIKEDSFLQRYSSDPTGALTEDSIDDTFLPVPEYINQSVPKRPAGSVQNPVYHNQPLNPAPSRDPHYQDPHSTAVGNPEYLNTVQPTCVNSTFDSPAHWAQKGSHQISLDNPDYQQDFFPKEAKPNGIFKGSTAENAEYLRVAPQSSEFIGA

Structure (SMILES) | IC50 (EGFR L858R/T790M) [nM] | IC50 [1] [nM] | IC50 (EGFR L858R) [nM] | IC50 (EGFR Exon19Del/T790M) [nM] | GI50 (A-431; A-431 cells) [µM] | GI50 (PC-9) [µM] | pIC50 (EGFR Exon19Del) | IC50 (EGFR[T790M/C797S/L858R]) [nM] | GI50 [2, 3] [µM] | GI50 [2, 4] [µM] | GI50 [2, 5] [µM] | GI50 [2, 6] [µM] | GI50 [2, 7] [µM] | GI50 [2, 8] [µM] | GI50 [2, 9] [µM] | IC50 (EGFR wild type) [nM] | IC50 (EGFR (d746-750 C797S)) [nM] | IC50 (EGFR (C797S L858R)) [nM] | GI50 (PC-9; Homo sapiens, PC-9, 72 h) [µM] | GI50 (A-431; [10]) [µM] | also measured
Cn1ncc2c1OCCN1CC3CCC(C3)(C1)n1c(nc3ccc(N4CCN(C5CC5)CC4)cc31)NC(=O)c1cc-2c(=O)n(C)c1 (single isomer, unassigned) [Example A83A] | > 5000 | > 5000 | 2020 | > 5000 | 7.76 | 0.766 | 6.37 | > 5000 | 0.176 | 0.789 | 0.993 | 0.468 | 1.09 | 1.13 | 0.585 | > 5000 | 577 | 2600 |  |  | 
CN1CCN(C2CN(c3ccc4nc5n(c4c3)C34CCC(CN(CCOc6c(cnn6C)-c6cc(cn(C)c6=O)C(=O)N5)C3)C4)C2)CC1 (single isomer, unassigned) [Example A70B] | 1.8 | 2.1 | 4.7 | 1.9 | 0.744 | 0.0027 | 8.80 | 2.1 | 0.00066 | 0.001 | 0.00076 | 0.0027 | 0.00091 | 0.0059 | 0.0016 | 19 | 0.91 | 3.6 |  |  | 
CN1CCC2(C1)CN(c1ccc3nc4n(c3c1)C13CCC(CN(CCOc5c(cnn5C)-c5cc(cn(C)c5=O)C(=O)N4)C1)C3)C2 (single isomer, unassigned) [Example A78B] | 2.4 | 1.6 | 2.4 | 2.7 | 0.434 | 0.0024 | 8.92 | 1.4 | 0.00051 | 0.00082 | 0.00087 | 0.00074 | 0.0009 | 0.001 | 0.00075 | 11 | 0.91 | 2.2 |  |  | 
CCC1CCCOc2c(cnn2C)-c2cc(cn(C)c2=O)C(=O)Nc2nc3ccc(N4CCN(C)CC4)cc3n2C1 (single isomer, unassigned) [Example A16A, 11-Ethyl-5,26-dimethyl-16-(4-methylpiperazin-1-yl)-7-oxa-4,5,13,20,22,26-hexaazapentacyclo[22.3.1.0^{2,6}.0^{13,21}.0^{14,19}]octacosa-1(28),2(6),3,14,16,18,20,24-octaene-23,27-dione] | > 5000 | 115 | > 5000 | 127 | 0.095 |  | 6.82 | > 5000 | 0.073 | 0.122 | 0.182 | 0.113 | 0.161 | 0.165 | 0.117 | > 5000 | 152 | 1350 | 0.139 |  | 
C[C@@H]1CCCOc2c(cnn2C)-c2cc(cn(C)c2=O)C(=O)Nc2nc3ccc(N4CCOCC4)cc3n2C1 [Example A26, (11R) 5,11,26-trimethyl-16-(morpholin-4-yl)-7-oxa-4,5,13,20,22,26-hexaazapentacyclo[22.3.1.0^{2,6}.0^{13,21}.0^{14,19}]octacosa-1(28),2(6),3,14,16,18,20,24-octaene-23,27-dione] | 19 | 5.6 | 68 | 5 |  |  | 8.10 | 16 |  |  |  |  |  |  |  | 1090 | 2.9 | 33 | 0.018 | 0.405 | GI50 [2, 11]: 0.0021 µM; GI50 [2, 12]: 0.016 µM; GI50 [2, 13]: 0.018 µM; GI50 [2, 14]: 0.0046 µM; GI50 [2, 15]: 0.012 µM; GI50 [2, 16]: 0.028 µM; GI50 [2, 17]: 0.018 µM
CN(C)C1CCN(c2ccc3nc4n(c3c2)C23CCC(CN(CCOc5c(cnn5C)-c5cc(cn(C)c5=O)C(=O)N4)C2)C3)CC1 (single isomer, unassigned) [Example A64A] | > 5000 | 2100 | > 5000 | > 5000 | 6.13 | 0.546 | 5.67 | > 5000 | 0.215 | 0.513 | 0.599 | 0.443 | 0.381 | 2.1 | 0.755 | > 5000 | 1920 | > 5000 |  |  | 
C[C@@H]1CCCOc2c(cnn2C)-c2cc(cn(C)c2=O)C(=O)Nc2nc3ccc(N4CCN(C5CC5)CC4)cc3n2C1 [Example A48] | 5 | 3.1 | 40 | 2.8 |  |  | 8.51 | 4.4 |  |  |  |  |  |  |  | 2250 | 2.1 | 28 | 0.038 | 0.573 | GI50 [2, 11]: 0.0094 µM; GI50 [2, 12]: 0.048 µM; GI50 [2, 13]: 0.02 µM; GI50 [2, 14]: 0.026 µM; GI50 [2, 15]: 0.021 µM; GI50 [2, 16]: 0.094 µM; GI50 [2, 17]: 0.053 µM
CN1CCC2CN(c3ccc4nc5n(c4c3)C34CCC(CN(CCOc6c(cnn6C)-c6cc(cn(C)c6=O)C(=O)N5)C3)C4)CC21 (single isomer, unassigned) [Example A79B] | 12 | 11 | 27 | 10 |  | 0.023 | 8.20 | 8.3 | 0.0007 | 0.01 | 0.012 | 0.0085 | 0.014 | 0.037 | 0.013 | 126 | 5 | 13 |  | 1.28 | 
